Laboratory results: ChEMBL document CHEMBL5360655, “Design, Synthesis, and Biological Evaluation of Novel P2X7 Receptor Antagonists for the Treatment of Septic Acute Kidney Injury” (J Med Chem, 2023)
Calls of active or inactive are those of the source. The calls are words filed in the database; no cut-off is given here.

How the values were obtained:
[1] = biological target: T1, P2X purinoceptor 7 (Homo sapiens) (UniProt Q99572); assay: Antagonist activity at human P2X7 receptor expressed in HEK293 cells assessed as inhibition of ATP-induced receptor pore formation at 200 nM by propidium iodide dye uptake based fluorescence analysis; type: cell-based
T1 sequence (whole entry): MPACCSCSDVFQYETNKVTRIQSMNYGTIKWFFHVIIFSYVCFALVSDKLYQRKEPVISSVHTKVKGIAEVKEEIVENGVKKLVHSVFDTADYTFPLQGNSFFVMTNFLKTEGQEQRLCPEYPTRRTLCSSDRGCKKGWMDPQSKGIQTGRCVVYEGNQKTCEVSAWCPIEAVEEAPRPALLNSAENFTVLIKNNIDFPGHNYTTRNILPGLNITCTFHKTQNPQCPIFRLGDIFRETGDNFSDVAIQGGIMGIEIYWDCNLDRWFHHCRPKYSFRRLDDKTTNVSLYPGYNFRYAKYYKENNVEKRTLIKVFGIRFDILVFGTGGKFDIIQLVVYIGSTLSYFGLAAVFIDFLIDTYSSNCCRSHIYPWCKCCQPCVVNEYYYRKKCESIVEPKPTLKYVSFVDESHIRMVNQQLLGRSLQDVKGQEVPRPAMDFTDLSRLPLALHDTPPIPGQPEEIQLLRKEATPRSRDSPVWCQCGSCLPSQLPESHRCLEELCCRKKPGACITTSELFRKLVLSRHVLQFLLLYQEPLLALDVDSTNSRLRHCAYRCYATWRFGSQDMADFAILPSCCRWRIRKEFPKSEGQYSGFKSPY

[2] = Half life in mouse liver microsomes; type: ADME, Microsome
[3] = biological target: T2, P2X purinoceptor 7 (Mus musculus) (UniProt Q9Z1M0); assay: Antagonist activity at mouse P2X7 receptor expressed in HEK293 cells assessed as inhibition of ATP-induced receptor pore formation at 1 uM by propidium iodide dye uptake based fluorescence analysis; type: cell-based; settings: filed as antagonist
T2 sequence (whole entry): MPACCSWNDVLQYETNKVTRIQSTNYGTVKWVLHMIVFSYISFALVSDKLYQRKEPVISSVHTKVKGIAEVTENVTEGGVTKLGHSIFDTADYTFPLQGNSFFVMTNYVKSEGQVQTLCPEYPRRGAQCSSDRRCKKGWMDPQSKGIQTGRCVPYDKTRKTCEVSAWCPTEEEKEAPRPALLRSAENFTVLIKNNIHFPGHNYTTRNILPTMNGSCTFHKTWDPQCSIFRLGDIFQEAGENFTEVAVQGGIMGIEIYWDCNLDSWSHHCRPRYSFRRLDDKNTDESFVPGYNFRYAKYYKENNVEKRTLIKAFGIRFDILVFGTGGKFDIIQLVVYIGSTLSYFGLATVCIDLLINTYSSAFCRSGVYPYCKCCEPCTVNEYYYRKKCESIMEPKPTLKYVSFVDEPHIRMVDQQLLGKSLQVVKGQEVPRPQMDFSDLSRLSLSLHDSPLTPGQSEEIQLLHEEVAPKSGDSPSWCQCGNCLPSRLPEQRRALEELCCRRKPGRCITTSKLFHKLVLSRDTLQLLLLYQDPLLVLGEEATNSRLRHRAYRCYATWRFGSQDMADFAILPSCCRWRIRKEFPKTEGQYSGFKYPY

[4] = biological target: T2, P2X purinoceptor 7 (Mus musculus); assay: Antagonist activity at mouse P2X7 receptor expressed in HEK293 cells assessed as inhibition of ATP-induced receptor pore formation at 200 nM by propidium iodide dye uptake based fluorescence analysis; type: cell-based
[5] = Intrinsic clearance in mouse liver microsomes; type: ADME, Microsome; settings: read-out: CLH
[6] = biological target: T1, P2X purinoceptor 7 (Homo sapiens); assay: Antagonist activity at human P2X7 receptor expressed in HEK293 cells assessed as inhibition of ATP-induced receptor pore formation at 1 uM by propidium iodide dye uptake based fluorescence analysis; type: cell-based; settings: filed as antagonist
[7] = Half life in human liver microsomes; type: ADME, Microsome
[8] = Intrinsic clearance in human liver microsomes; type: ADME, Microsome; settings: read-out: CLH
P2X purinoceptor 7 [9] = biological target: T3, P2X purinoceptor 7 (Mus musculus, UniProt Q9Z1M0); assay: Antagonist activity at mouse P2X7 receptor expressed in HEK293 cells assessed as inhibition of ATP-induced receptor pore formation by propidium iodide dye uptake based fluorescence analysis; type: cell-based
T3 sequence (Q9Z1M0 whole entry): T2 sequence (whole entry)

P2X purinoceptor 7 [10] = biological target: T4, P2X purinoceptor 7 (Homo sapiens, UniProt Q99572); assay: Antagonist activity at human P2X7 receptor expressed in HEK293 cells assessed as inhibition of ATP-induced receptor pore formation by propidium iodide dye uptake based fluorescence analysis; type: cell-based
T4 sequence (Q99572 whole entry): T1 sequence (whole entry)

[11] = Cmax in BALB/c mouse at 10 mg/kg, iv measured for 24 hrs by LC-MS/MS analysis; type: ADME, organism-based; design: time 24 hrs, dose 10 mg/kg, route iv; settings: in vivo
Mus musculus [12] = assay: Reno-protective activity against LPS-induced acute kidney injury C57BL/6J mouse model assessed as decrease in serum […] level at 10 mg/kg, ip administered twice at 30 mins prior to LPS challenge and 8 hrs post-LPS challenge and measured at 16 hrs post-LPS challenge; type: functional, organism-based; settings: time 16.5 hrs
[13] = biological target: T2, P2X purinoceptor 7 (Mus musculus); assay: Antagonist activity at mouse P2X7 receptor expressed in HEK293 cells assessed as inhibition of ATP-induced receptor pore formation at 10 uM by propidium iodide dye uptake based fluorescence analysis; type: cell-based; settings: filed as antagonist
[14] = biological target: T1, P2X purinoceptor 7 (Homo sapiens); assay: Antagonist activity at human P2X7 receptor expressed in HEK293 cells assessed as inhibition of ATP-induced receptor pore formation at 10 uM by propidium iodide dye uptake based fluorescence analysis; type: cell-based; settings: filed as antagonist
P2X purinoceptor 7 [15] = biological target: T4, P2X purinoceptor 7; assay: Antagonist activity at P2X7 receptor in human THP-1 cells assessed as inhibition of ATP-induced IL-1beta secretion pretreated with LPS for 3 hrs followed by incubation with compound for 40 mins followed by treatment with ATP for 1 hr by ELISA; type: cell-based
[16] = Cmax in BALB/c mouse at 10 mg/kg, po measured for 24 hrs by LC-MS/MS analysis; type: ADME, organism-based; design: time 24 hrs, dose 10 mg/kg, route po; settings: in vivo
[17] = Oral bioavailability in BALB/c mouse at 10 mg/kg measured for 24 hrs by LC-MS/MS analysis; type: ADME, organism-based; settings: in vivo
[18] = Tmax in BALB/c mouse at 10 mg/kg, po measured for 24 hrs by LC-MS/MS analysis; type: ADME, organism-based; settings: in vivo
[19] = Half life in BALB/c mouse at 10 mg/kg, iv measured for 24 hrs by LC-MS/MS analysis; type: ADME, organism-based; settings: in vivo
Mus musculus [20] = assay: Reno-protective activity against LPS-induced acute kidney injury C57BL/6J mouse model assessed as decrease in BUN level at 10 mg/kg, ip administered twice at 30 mins prior to LPS challenge and 8 hrs post-LPS challenge and measured at 16 hrs post-LPS challenge; type: functional, organism-based; settings: time 16.5 hrs
[21] = Clearance in BALB/c mouse at 10 mg/kg, po measured for 24 hrs by LC-MS/MS analysis; type: ADME, organism-based; settings: in vivo
[22] = Tmax in BALB/c mouse at 10 mg/kg, iv measured for 24 hrs by LC-MS/MS analysis; type: ADME, organism-based; settings: in vivo
[23] = Half life in BALB/c mouse at 10 mg/kg, po measured for 24 hrs by LC-MS/MS analysis; type: ADME, organism-based; settings: in vivo
[24] = AUC(0 to t) in BALB/c mouse at 10 mg/kg, po measured for 24 hrs by LC-MS/MS analysis; type: ADME, organism-based; design: time 24 hrs, dose 10 mg/kg, route po; settings: in vivo
[25] = AUC(0 to t) in BALB/c mouse at 10 mg/kg, iv measured for 24 hrs by LC-MS/MS analysis; type: ADME, organism-based; design: time 24 hrs, dose 10 mg/kg, route iv; settings: in vivo
[26] = Clearance in BALB/c mouse at 10 mg/kg, iv measured for 24 hrs by LC-MS/MS analysis; type: ADME, organism-based; settings: in vivo

| SMILES | inhibition ([1]; filed as antagonist) | half-life [2] | inhibition [3] | inhibition ([4]; filed as antagonist) | CLint scaled [5] | inhibition [6] | half-life [7] | CLint scaled [8] | IC50 (P2X purinoceptor 7 [9]) | IC50 (P2X purinoceptor 7 [10]) | inhibition [1] | further results |
| --- | --- | --- | --- | --- | --- | --- | --- | --- | --- | --- | --- | --- |
| O=C(NCc1cn(-c2cc(Cl)ccn2)nn1)c1cnc(-c2cccc(NS(=O)(=O)N3CCOCC3)c2)s1 | 46.5% | 25.4 min | 112% | 82.4% | 215 mL/min/kg | 78.8% | 72.2 min | 24.1 mL/min/kg | 58.5 nM | 436 nM |  |  |
| CS(=O)(=O)Nc1cccc(-c2ccc(Cl)c(C(=O)NCc3cn(-c4cc(Cl)ccn4)nn3)c2)c1 |  | 83.5 min | 74.7% |  | 65.4 mL/min/kg | 76.9% | 56.8 min | 30.6 mL/min/kg | 1860 nM | 91.4 nM | 30.8% | inhibition [4]: 32.8% |
| CS(=O)(=O)Nc1ccc(-c2ncc(C(=O)NCc3cn(-c4cc(Cl)ccn4)nn3)s2)cc1 |  | > 120 min | 89.8% | 71.6% | < 12 mL/min/kg | 52.3% | > 120 min | < 12 mL/min/kg | 93.3 nM | 340 nM | 26.6% |  |
| O=C(NCc1cn(-c2cc(Cl)ccn2)nn1)c1cnc(-c2cccc(NS(=O)(=O)C3CC3)c2)s1 | 40% | > 120 min | 83.9% | 68.3% | < 12 mL/min/kg | 62.5% | > 120 min | < 12 mL/min/kg | 69.9 nM | 656 nM |  |  |
| O=C(NCC1(N2CCN(c3ccccc3)CC2)CCOCC1)c1cccnc1Sc1ccccc1 | 93.8% | 61.9 min | 92% | 87.3% | 88.2 mL/min/kg | 95.2% | 42.5 min | 40.9 mL/min/kg |  |  |  | Cmax [11]: 516 ng/mL; Activity (Mus musculus [12]): Active; inhibition [13]: 89%; inhibition [14]: 92%; IC50 (P2X purinoceptor 7 [15]): < 30 nM; Cmax [16]: 270 ng/mL; bioavailability [17]: 49.9%; Tmax [18]: 4.8 min; half-life [19]: 46.2 min; Activity (Mus musculus [20]): Active; CL/F [21]: 1080 mL/min/kg; Tmax [22]: 4.8 min; half-life [23]: 48 min; AUC(0-t) at 24 h [24]: 155 ng·h/mL; AUC(0-t) at 24 h [25]: 310 ng·h/mL; clearance [26]: 538 mL/min/kg |
| COc1ccc(-c2ccc(Cl)c(C(=O)NCc3cn(-c4cc(Cl)ccn4)nn3)c2)cc1OC |  | 25.3 min | 51% |  | 216 mL/min/kg | 59.2% | 97.6 min | 17.8 mL/min/kg | 1790 nM | 285 nM | 35.7% | inhibition [4]: inactive |
| CC(C)S(=O)(=O)c1ccc(-c2ncc(C(=O)NCc3cn(-c4cc(Cl)ccn4)nn3)s2)cc1 |  | 82.5 min | 92.6% | 67.6% | 66.2 mL/min/kg | 56.3% | 43 min | 40.4 mL/min/kg | 344 nM | 659 nM | 22.1% |  |
| O=C(NCc1cn(-c2cc(Cl)ccn2)nn1)c1cnc(-c2ccc(NS(=O)(=O)N3CCOCC3)cc2)s1 | 55.2% | 35.4 min | 78.2% | 54.3% | 154 mL/min/kg | 86.1% | 114 min | 15.3 mL/min/kg | 104 nM | 99.6 nM |  |  |
